pIC50: −log10 of the molar value. Positions of bridges follow the written chain, without caps; N, C: chain ends. Non-standard residues stand in square brackets, D forms with d. Residues, ends and D or L forms follow the SMILES beside them. 2Nal = N[C@@H](Cc1ccc2ccccc2c1)C(=O)O; Cit = NC(=O)NCCC[C@H](N)C(=O)O; Ahp(2) = CCCCC[C@H](N)C(=O)O; Tle = CC(C)(C)[C@H](N)C(=O)O; NHexGly = CCCCCCNCC(=O)O; Nle = CCCC[C@H](N)C(=O)O; Orn = NCCC[C@H](N)C(=O)O; Dab = NCC[C@H](N)C(=O)O
These molecules were tested against T1, mouse VISTA (mVISTA) (Mus musculus, UniProt Q9D659) (assay: Cell-Based Binding High-Content Assay For mVISTA (HC CBA mVISTA)). Conditions: 293T cells expressing mouse VISTA; competition with biotinylated peptide (2 nM); read-out: HC CBA mVISTA IC50.
T1 construct: expressed in transfected cells; host or cells: Human embryonic kidney 293T cells
T1 sequence (Q9D659 33-308): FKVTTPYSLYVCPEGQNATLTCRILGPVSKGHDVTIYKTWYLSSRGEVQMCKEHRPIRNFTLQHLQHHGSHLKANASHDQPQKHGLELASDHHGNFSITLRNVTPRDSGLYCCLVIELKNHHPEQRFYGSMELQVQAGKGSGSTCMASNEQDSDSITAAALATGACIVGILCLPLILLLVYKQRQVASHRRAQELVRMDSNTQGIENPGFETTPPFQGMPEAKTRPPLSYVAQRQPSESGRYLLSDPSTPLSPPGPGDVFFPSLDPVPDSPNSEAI
Procedure, shortened: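 Competition of compound with a biotinylated peptide (final 2 nM, 30 min at RT) for binding to mVISTA on 293T cells, run under no-wash or wash (1 h compound preincubation then removal) formats. Readout by Alexa 647–streptavidin imaging on a high-content platform; four-parameter logistic fit gave IC50.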

Row | pIC50 | SMILES
1 | 7.55 | CCCCCCN1CC(=O)N[C@@H](Cc2ccc(O)cc2)C(=O)N[C@@H](C(C)C)C(=O)NCC(=O)N[C@@H](CCCNC(=N)N)C(=O)N[C@@H](CC(C)C)C(=O)N[C@@H](CCCCC)C(=O)N2CCC[C@H]2C(=O)N[C@@H](C(C)C)C(=O)N[C@@H](CC(=O)O)C(=O)N[C@H](C(=O)N[C@@H](CO)C(=O)N[C@@H](CCCCN)C(=O)N[C@@H](CCC(N)=O)C(=O)O)CSCC(=O)N[C@@H](Cc2ccc3ccccc3c2)C(=O)N[C@@H](Cc2ccc(O)cc2)C(=O)N[C@@H](CC(=O)O)C1=O [Example 1165] ({CH2CO}-[2Nal]YD[NHexGly]YVGRL[Ahp(2)]PVDCSKQ-OH; thioether N-14)
2 | 7.73 | CCCCCCN1CC(=O)N[C@@H](Cc2ccc(O)cc2)C(=O)N[C@@H](C(C)C)C(=O)NCC(=O)N[C@@H](CCCNC(=N)N)C(=O)N[C@@H](CC(C)C)C(=O)N[C@@H](CCCCC)C(=O)N2CCC[C@H]2C(=O)N[C@@H](C(C)C)C(=O)N[C@@H](CC(=O)O)C(=O)N[C@H](C(=O)N[C@@H](CO)C(=O)N[C@@H](CCN)C(=O)N[C@@H](CCC(N)=O)C(=O)O)CSCC(=O)N[C@@H](Cc2ccc3ccccc3c2)C(=O)N[C@@H](Cc2ccc(O)cc2)C(=O)N[C@@H](CC(=O)O)C1=O [Example 1166] ({CH2CO}-[2Nal]YD[NHexGly]YVGRL[Ahp(2)]PVDCS[Dab]Q-OH; thioether N-14)

Same assay, conditions: read-out: HC CBA mVISTA IC50

Row | SMILES | pIC50
3 | CCCCCCN1CC(=O)N[C@@H](Cc2ccc(O)cc2)C(=O)N[C@@H](CCCC)C(=O)N[C@@H](CC(=O)O)C(=O)N[C@@H](CCCN)C(=O)N[C@@H](CC(C)C)C(=O)N[C@@H](CCCCC)C(=O)N2CCC[C@H]2C(=O)N[C@@H](C(C)C)C(=O)N[C@@H](CC(=O)O)C(=O)N[C@H](C(=O)N[C@@H](CC(=O)O)C(N)=O)CSCC(=O)N[C@@H](Cc2ccccc2)C(=O)N[C@@H](Cc2c[nH]c3ccccc23)C(=O)N[C@@H](CC(=O)O)C1=O [Example 1353] ({CH2CO}-FWD[NHexGly]Y[Nle]D[Orn]L[Ahp(2)]PVDCD-NH2; thioether N-14) | 7.95
4 | CCCCCCN1CC(=O)N[C@@H](Cc2ccc(O)cc2)C(=O)N[C@@H](CCCCC)C(=O)N[C@@H](CC(N)=O)C(=O)N[C@@H](CCCNC(=N)N)C(=O)N[C@@H](CC(C)C)C(=O)N[C@@H](CCCCC)C(=O)N2CCC[C@H]2C(=O)N[C@@H](C(C)C)C(=O)N[C@@H](CO)C(=O)N[C@H](C(=O)NCC(=O)O)CSCC(=O)N[C@@H](Cc2ccccc2)C(=O)N[C@@H](Cc2c[nH]c3ccccc23)C(=O)N[C@@H](CC(=O)O)C1=O [Example 1357] ({CH2CO}-FWD[NHexGly]Y[Ahp(2)]NRL[Ahp(2)]PVSCG-OH; thioether N-14) | 7.50
5 | CCCCCCN1CC(=O)N[C@@H](Cc2ccc(O)cc2)C(=O)N[C@@H](CC(C)C)C(=O)NCC(=O)N[C@@H](CCCNC(=N)N)C(=O)N[C@@H](CC(C)C)C(=O)N[C@@H](CCCCC)C(=O)N2CCC[C@H]2C(=O)N[C@@H](C(C)C)C(=O)N[C@@H](CO)C(=O)N[C@H](C(=O)NCC(N)=O)CSCC(=O)N[C@@H](Cc2ccccc2)C(=O)N[C@@H](Cc2c[nH]c3ccccc23)C(=O)N[C@@H](CC(=O)O)C1=O [Example 1358] ({CH2CO}-FWD[NHexGly]YLGRL[Ahp(2)]PVSCG-NH2; thioether N-14) | 7.71
6 | CCCCCCN1CC(=O)N[C@@H](Cc2ccc(O)cc2)C(=O)N[C@@H](CC(C)C)C(=O)N[C@@H](CC(=O)O)C(=O)N[C@@H](CCCN)C(=O)N[C@@H](CC(C)C)C(=O)N[C@@H](CCCCC)C(=O)N2CCC[C@H]2C(=O)N[C@@H](C(C)C)C(=O)N[C@@H](CO)C(=O)N[C@H](C(=O)NCC(N)=O)CSCC(=O)N[C@@H](Cc2ccccc2)C(=O)N[C@@H](Cc2c[nH]c3ccccc23)C(=O)N[C@@H](CC(=O)O)C1=O [Example 1359] ({CH2CO}-FWD[NHexGly]YLD[Orn]L[Ahp(2)]PVSCG-NH2; thioether N-14) | 7.77
7 | CCCCCCN1CC(=O)N[C@@H](Cc2ccc(O)cc2)C(=O)N[C@@H](CCCC)C(=O)N[C@@H](CC(N)=O)C(=O)N[C@@H](CCCNC(=N)N)C(=O)N[C@@H](CC(C)C)C(=O)N[C@@H](CCCCC)C(=O)N2CCC[C@H]2C(=O)N[C@@H](C(C)(C)C)C(=O)N[C@@H](CO)C(=O)N[C@H](C(=O)NCC(N)=O)CSCC(=O)N[C@@H](Cc2ccccc2)C(=O)N[C@@H](Cc2c[nH]c3ccccc23)C(=O)N[C@@H](CC(=O)O)C1=O [Example 1364] ({CH2CO}-FWD[NHexGly]Y[Nle]NRL[Ahp(2)]P[Tle]SCG-NH2; thioether N-14) | 7.36
8 | CCCCCCN1CC(=O)N[C@@H](Cc2ccc(O)cc2)C(=O)N[C@@H](CCCC)C(=O)N[C@@H](CC(=O)O)C(=O)N[C@@H](CCCN)C(=O)N[C@@H](CC(C)C)C(=O)N[C@@H](CCCCC)C(=O)N2CCC[C@H]2C(=O)N[C@@H](C(C)C)C(=O)N[C@@H](CC(=O)O)C(=O)N[C@H](C(=O)N[C@@H](CO)C(N)=O)CSCC(=O)N[C@@H](Cc2ccccc2)C(=O)N[C@@H](Cc2c[nH]c3ccccc23)C(=O)N[C@@H](CC(=O)O)C1=O [Example 1365] ({CH2CO}-FWD[NHexGly]Y[Nle]D[Orn]L[Ahp(2)]PVDCS-NH2; thioether N-14) | 8.11

Continued, values first:

Row | pIC50 | SMILES
9 | 7.91 | CCCCCCN1CC(=O)N[C@@H](Cc2ccc(O)cc2)C(=O)N[C@@H](CCCC)C(=O)N[C@@H](CC(=O)O)C(=O)N[C@@H](CCCNC(=N)N)C(=O)N[C@@H](CC(C)C)C(=O)N[C@@H](CCCCC)C(=O)N2CCC[C@H]2C(=O)N[C@@H](C(C)C)C(=O)N[C@@H](CC(=O)O)C(=O)N[C@H](C(=O)N[C@@H](CC(=O)O)C(N)=O)CSCC(=O)N[C@@H](Cc2ccccc2)C(=O)N[C@@H](Cc2c[nH]c3ccccc23)C(=O)N[C@@H](CC(=O)O)C1=O [Example 1352] ({CH2CO}-FWD[NHexGly]Y[Nle]DRL[Ahp(2)]PVDCD-NH2; thioether N-14)
10 | 7.69 | CCCCCCN1CC(=O)N[C@@H](Cc2ccc(O)cc2)C(=O)N[C@@H](CCCCC)C(=O)N[C@@H](CC(N)=O)C(=O)N[C@@H](CCCNC(=N)N)C(=O)N[C@@H](CC(C)C)C(=O)N[C@@H](CCCCC)C(=O)N2CCC[C@H]2C(=O)N[C@@H](C(C)C)C(=O)N[C@@H](CO)C(=O)N[C@H](C(=O)NCC(N)=O)CSCC(=O)N[C@@H](Cc2ccccc2)C(=O)N[C@@H](Cc2c[nH]c3ccccc23)C(=O)N[C@@H](CC(=O)O)C1=O [Example 1354] ({CH2CO}-FWD[NHexGly]Y[Ahp(2)]NRL[Ahp(2)]PVSCG-NH2; thioether N-14)
11 | 7.47 | CCCCCCN1CC(=O)N[C@@H](Cc2ccc(O)cc2)C(=O)N[C@@H](CCCC)C(=O)N[C@@H](CC(=O)O)C(=O)N[C@@H](CCCN)C(=O)N[C@@H](CC(C)C)C(=O)N[C@@H](CCCCC)C(=O)N2CCC[C@H]2C(=O)N[C@@H](C(C)C)C(=O)N[C@@H](CO)C(=O)N[C@H](C(=O)NCC(=O)O)CSCC(=O)N[C@@H](Cc2ccccc2)C(=O)N[C@@H](Cc2c[nH]c3ccccc23)C(=O)N[C@@H](CC(=O)O)C1=O [Example 1355] ({CH2CO}-FWD[NHexGly]Y[Nle]D[Orn]L[Ahp(2)]PVSCG-OH; thioether N-14)
12 | 7.54 | CCCCCCN1CC(=O)N[C@@H](Cc2ccc(O)cc2)C(=O)N[C@@H](CCCC)C(=O)N[C@@H](CC(=O)O)C(=O)N[C@@H](CCCNC(=N)N)C(=O)N[C@@H](CC(C)C)C(=O)N[C@@H](CCCCC)C(=O)N2CCC[C@H]2C(=O)N[C@@H](C(C)C)C(=O)N[C@@H](CO)C(=O)N[C@H](C(=O)NCC(=O)O)CSCC(=O)N[C@@H](Cc2ccccc2)C(=O)N[C@@H](Cc2c[nH]c3ccccc23)C(=O)N[C@@H](CC(=O)O)C1=O [Example 1356] ({CH2CO}-FWD[NHexGly]Y[Nle]DRL[Ahp(2)]PVSCG-OH; thioether N-14)
13 | 7.55 | CCCCCCN1CC(=O)N[C@@H](Cc2ccc(O)cc2)C(=O)N[C@@H](CCCC)C(=O)N[C@@H](CC(N)=O)C(=O)N[C@@H](CCCNC(=N)N)C(=O)N[C@@H](CC(C)C)C(=O)N[C@@H](CCCCC)C(=O)N2CCC[C@H]2C(=O)N[C@@H](C(C)C)C(=O)N[C@@H](CCCNC(=N)N)C(=O)N[C@H](C(=O)NCC(=O)O)CSCC(=O)N[C@@H](Cc2ccccc2)C(=O)N[C@@H](Cc2c[nH]c3ccccc23)C(=O)N[C@@H](CC(=O)O)C1=O [Example 1360] ({CH2CO}-FWD[NHexGly]Y[Nle]NRL[Ahp(2)]PVRCG-OH; thioether N-14)
14 | 8.28 | CCCCCCN1CC(=O)N[C@@H](Cc2ccc(O)cc2)C(=O)N[C@@H](CCCC)C(=O)N[C@@H](CC(N)=O)C(=O)N[C@@H](CCCNC(=N)N)C(=O)N[C@@H](CC(C)C)C(=O)N[C@@H](CCCCC)C(=O)N2CCC[C@H]2C(=O)N[C@@H](C(C)C)C(=O)N[C@@H](CC(=O)O)C(=O)N[C@H](C(=O)NCC(=O)O)CSCC(=O)N[C@@H](Cc2ccccc2)C(=O)N[C@@H](Cc2c[nH]c3ccccc23)C(=O)N[C@@H](CC(=O)O)C1=O [Example 1361] ({CH2CO}-FWD[NHexGly]Y[Nle]NRL[Ahp(2)]PVDCG-OH; thioether N-14)
15 | 8.40 | CCCCCCN1CC(=O)N[C@@H](Cc2ccc(O)cc2)C(=O)N[C@@H](CCCC)C(=O)N[C@@H](CC(N)=O)C(=O)N[C@@H](CCCNC(N)=O)C(=O)N[C@@H](CC(C)C)C(=O)N[C@@H](CCCCC)C(=O)N2CCC[C@H]2C(=O)N[C@@H](C(C)C)C(=O)N[C@@H](CC(=O)O)C(=O)N[C@H](C(=O)NCC(=O)O)CSCC(=O)N[C@@H](Cc2ccccc2)C(=O)N[C@@H](Cc2c[nH]c3ccccc23)C(=O)N[C@@H](CC(=O)O)C1=O [Example 1363] ({CH2CO}-FWD[NHexGly]Y[Nle]N[Cit]L[Ahp(2)]PVDCG-OH; thioether N-14)

Source: patent publication US20240218022A1, “ANTI-VISTA MACROCYCLIC PEPTIDES AND COMPOSITIONS” (BRISTOL-MYERS SQUIBB COMPANY, priority 2022, published 2024)
